“And” between values parts separate entries of the source, which are not always exact repeats. Equal entries are not always repeated. “Also recorded” adds a separate entry of the source.
Assays:
Format in all cases: in vivo, Sprague-Dawley rats
[1] = tested on: O-GlcNAc levels in cardiac tissue; experiment: Elevation of rat cardiac O-GlcNAc levels (IV); conditions: rats, IV 50 mg/kg, 0 to 20 h, Western blot
Method: The effect of intravenous (IV) administration of (3aR,5R,6S,7R,7aR)-2-(ethylamino)-5-(hydroxymethyl)-5,6,7,7a-tetrahydro-3aH-pyrano[3,2-d]thiazole-6,7-diol (Compound 25, hereinafter referred to as NAG-AE) on O-GlcNAc levels in cardiac tissue in Sprague-Dawley rats was measured. Animals were obtained from Charles-River as 5-week old healthy male Sprague-Dawley rats. Animals were given one week to acclimatize and at six weeks of age the appropriate treatment was initiated. Nine animals were given intravenous tail vein injections of 50 mg/kg NAG-AE; following injection, one animal was sacrificed at each of the following time points: 0, 1, 2, 4, 7, 10, 13, 16, and 20 h. In addition, one animal was given an injection of vehicle (PBS—pH 7.4) and sacrificed two hours later for use as a control. Tissues were removed from sacrificed animals as quickly as possible to minimize post-mortem delay. The hearts from each animal were immediately frozen in liquid nitrogen and stored at −80° C. until further use. Homogenization of the cardiac tissue was carried out by manual grinding followed by homogenization in cell lysis buffer (50 mM Tris, pH 8.0, 1 mM PMSF, 0.1% NP-40, 1 mM NAG-Bt) using a tissue homogenizer (IKA) at 4° C. Insoluble cell debris was removed by centrifugation at 17,900×g for 20 minutes at 4° C. and the resulting supernatant was stored at −20° C. until use. […]

[2] = tested on: tau phosphorylation levels in brain tissue; experiment: Decrease of rat brain tau phosphorylation levels (oral NAG-AE); conditions: rats, 200 mg/kg/day in drinking water for one day
Method: The effect of oral administration of (3aR,5R,6S,7R,7aR)-2-(ethylamino)-5-(hydroxymethyl)-5,6,7,7a-tetrahydro-3aH-pyrano[3,2-d]thiazole-6,7-diol (Compound 25, NAG-AE) on tau phosphorylation levels in brain tissue in Sprague-Dawley rats was measured. All animals were obtained from Charles-River as 5-week old healthy male Sprague-Dawley rats. Animals were given one week to acclimatize and at six weeks of age the appropriate treatment was initiated. Three animals received 200 mg/kg/day of NAG-AE in their drinking water for one day. Three additional animals received drinking water containing no NAG-AE and were used as controls. Immediately following the dosing period, all animals were sacrificed and brains were removed, stored, and processed as described in Example 29.
Western Blots. Samples were separated through 10% sodium dodecyl sulfate polyacrylamide gels (SDS-PAGE) and then transferred to nitrocellulose (Bio-Rad) membranes. Membranes were then blocked for 1 h at room temperature (RT) with 1% bovine serum albumin (BSA) in PBS containing 0.1% Tween-20 (Sigma) (PBS-T) and then subsequently probed with appropriate primary antibody delivered in 1% BSA in PBS-T for either 1 h at RT or overnight at 4° C. Membranes were then extensively washed with PBS-T, blocked again for 30 min with 1% BSA in PBS-T at RT and then probed with the appropriate HRP conjugated secondary antibody for 1 h at RT delivered in 1% BSA in PBS-T. Finally, the membranes were washed extensively and then developed with SuperSignal West Pico Chemiluminesence substrate (Pierce) and exposed to CL-XPosure Film (Pierce).
Antibodies. Mouse monoclonal α-Tau-5 which recognizes the central region of tau in a phosphorylation state independent manner was purchased from Lab Vision Corporation and used at a dilution of 1:500. Rabbit polyclonal […], and α-Tau [pS^422] recognize phosphorylated Thr-231, Ser-396, and Ser-422 respectively, and were purchased from Biosource International and used at a dilution of 1:1000. Mouse monoclonal α-O-GlcNAc (CTD110.6) which recognizes the O-GlcNAc monosaccharide modification was purchased from Covance and used at a dilution of 1:2500. Mouse monoclonal α-actin (clone AC-40) was purchased from Sigma and was used at a dilution of 1:1000.

[3] = Eight-month repeat dose toxicology study in rats: urinalysis
Method: The toxicological effects of repeated oral administration of (3aR,5R,6S,7R,7aR)-5-(hydroxymethyl)-2-propyl-5,6,7,7a-tetrahydro-3aH-pyrano[3,2-d]thiazole-6,7-diol (NAG-Bt) to Sprague-Dawley rats over eight months was measured. All animals were obtained from Charles-River as 5-week old healthy male Sprague-Dawley rats. Animals were given one week to acclimatize and at six weeks of age the appropriate treatment was initiated. Eight animals were fed food containing 100 mg/kg/day of NAG-Bt for eight months. Eight additional animals fed with food containing no inhibitor were used as controls. […] After four months of dosing, blood and urine samples were collected from four rats in each group.

[4] = rat, in vivo, po, 100 mg/kg/day

For `CCNC1=N[C@@H]2[C@@H](O)[C@H](O)[C@@H](CO)O[C@@H]2S1` [NAG-AE, (3aR,5R,6S,7R,7aR)-2-(ethylamino)-5-(hydroxymethyl)-5,6,7,7a-tetrahydro-3aH-pyrano[3,2-d]thiazole-6,7-diol], the “O-GlcNAc levels in cardiac tissue” value [1] was “time-dependent elevation”, the “brain tau phosphorylation at Ser-396, Thr-231, and Ser-422” value ([2]; Western blot) was “reduction; also recorded: decreases” and the “global levels of O-GlcNAc in brain” value ([2]; Western blot) was “increases”. For the same compound, the “reduction of tau phosphorylation at Ser-396” value ([2]; densitometry) was about 3.1 fold, the “reduction of tau phosphorylation at Ser-422” value ([2]; densitometry) was about 1.8 fold and the “reduction of tau phosphorylation at Thr-231” value ([2]; densitometry) was about 2.7 fold.

For `CCCC1=N[C@@H]2[C@@H](O)[C@H](O)[C@@H](CO)O[C@@H]2S1` [NAG-Bt, (3aR,5R,6S,7R,7aR)-5-(hydroxymethyl)-2-propyl-5,6,7,7a-tetrahydro-3aH-pyrano[3,2-d]thiazole-6,7-diol], the “Urine Bilirubin” value [3, 4] was “neg”, the “Urine Color” value [3, 4] was “Yellow” and the “Urine Crystals” value [3, 4] was “PO4”. The “Urine Crystals Amount” value [3, 4] was “Many”, the “Urine Epith” value [3, 4] was “neg” and the “Urine Glucose” value [3, 4] was “neg”. The “Urine Gran Cast” value [3, 4] was “neg”, the “Urine Hyal cast” value [3, 4] was “neg” and the “Urine RBC Cast” value [3, 4] was “neg”. For the same compound, the “Urine Urobil” value [3, 4] was “Norm” and the “Urine Bacteria” value ([3]; rats dosed orally for 4 months at 100 mg/kg/day, individual treated rats) was “Mod- and neg (2×)”.

From patent US8962664B2, “Selective glycosidase inhibitors and uses thereof” (Simon Fraser University, priority 2006, dated 2015)
